Data as given in patent US11331338B2, “Hydrogen sulfide releasing polymer compounds” (CROMA-PHARMA GESELLSCHAFT M.B.H., priority 2016, dated 2022).

Columns and labels:
[1] = tested on: immortalized human microvascular endothelial cells (HMEC-1); experiment: Cell compatibility / proliferation (WST-1); type: cell-based; settings: HMEC-1 compared with the other cell types
From the text: In order to study cell compatibility, especially the effect of proliferation, the H2S releasing hyaluronic acid derivative according to FIG. 1A (s. above,) was investigated in comparison with unmodified HA (sodium salt of hyaluronic acid, “NA HA”) and an […] thiolated hyaluronic acid (“Thiomer CAPPY”). As further control, the well established commercially available H2S donor N-(benzoylthio)benzamide (Donor 5a is NSHD1, a small molecule with a thiol activation mechanism) was included in the experiments.
Three types of skin cells were used as models: primary human dermal fibroblasts (dFb), the immortalized line of human microvascular endothelial cells (HMEC-1) and the keratinocyte cell line HaCat. The cells were cultured in their appropriate medium. Synthetic medium Fibrolife with supplements and gentamycin was used for dFb, EBM+supplements was used for HMEC-1 and DMEM with 10% FCS and 1% CellShield was used for HaCat cells. Furthermore, 3 mM cysteine was added to all conditions investigated. […] Cells were seeded and grown at least overnight before medium was changed and the HA components were added according to the agreed protocol. […] Cell proliferation was measured indicated by using a WST-1-based colorimetric detection reagent according to manufacturers' protocol with fresh medium without addition of any HA-derivative. […]

[2] = Olfactory test for H2S liberation; settings: dissolved in acetone/phosphate buffer, excess L-cysteine
[3] = Detection of released H2S by embrowning Pb-acetate paper after thiol addition; settings: excess amounts of L-cysteine or cysteamine
Description: 850 mg polymer was obtained as a white, fibrous product with an estimated molecular weight of 270 kDa (based on the starting material) and a degree of modification with H2S releasing perthiol structures of […] polymer. This corresponds to a conversion rate of 98% of the thiol moieties of the polymer used as starting material. […] Emerging H2S was detected by embrowning Pb-acetate paper.
This finding was later confirmed by detecting H2S release after addition of excess amounts of L-cysteine or cysteamine to 4-amino-N-(benzoylthio)benzamide via embrowning Pb-acetate paper.

Compound	sensitivity of endothelial cells to H2S [1]	H2S liberation, olfactory test [2]	H2S release detected by Pb-acetate paper [3]
O=C(NSC(=O)c1ccccc1)c1ccccc1 [Donor 5a, N-(benzoylthio)benzamide]	most sensitive		
Nc1ccc(C(=O)NSC(=O)c2ccccc2)cc1 [4-amino-N-(benzoylthio)benzamide]		indicated H2S liberation	H2S release
